Experimental data published in ChEMBL document CHEMBL3885861, “Open TG-GATES”.

Species: Rattus norvegicus
Experiment: Open TG-GATES - Regimen: Daily Repeat
Assay type: toxicity, organism-based, Sprague-Dawley
Parameters: regimen Daily Repeat, gender Male, age 6 weeks
Conditions: in vivo, po, 1000 mg/kg, route gavage, dose level High; for APTT / Bas / Eos / Fbg / Hb / Ht / Lym / MCH / MCHC / MCV / Mono / Neu / PT / Plat / RBC / Ret / WBC: tissue Blood; for KIDNEY_L / KIDNEY_R / KIDNEY_TOTAL: tissue Kidney; for LIVER: tissue Liver; for ALP / AST / BUN / CRE / Ca / Cl / DBIL / GLC / IP / K / LDH / Na / PL / RALB / TBIL / TC / TG / TP / gamma-GTP: tissue Plasma

COc1ccc2[nH]c([S+]([O-])Cc3ncc(C)c(OC)c3C)nc2c1 (centres undefined) [OMEPRAZOLE]
TERMINAL_BW (72 h, time 3 day): 219.1 g | APTT (72 h, time 3 day): 19.8 s | Bas (72 h, time 3 day): 0% | Eos (72 h, time 3 day): 0.6% | Fbg (72 h, time 3 day): 196 mg/dL | Hb (72 h, time 3 day): 13.8 g/dL | Ht (72 h, time 3 day): 39.6% | Lym (72 h, time 3 day): 83.2% | MCH (72 h, time 3 day): 20.8 pg | MCHC (72 h, time 3 day): 34.8% | MCV (72 h, time 3 day): 59.9 fL | Mono (72 h, time 3 day): 3.8% | Neu (72 h, time 3 day): 11.8% | PT (72 h, time 3 day): 12.1 s | Plat (72 h, time 3 day): 132.7 x10_4/uL | RBC (72 h, time 3 day): 662.2 x10_4/ul | Ret (72 h, time 3 day): 1.7% | WBC (72 h, time 3 day): 99.5 x10_2/uL | KIDNEY_L (72 h, time 3 day): 1 g | KIDNEY_R (72 h, time 3 day): 1 g | KIDNEY_TOTAL (72 h, time 3 day): 1.9 g | LIVER (72 h, time 3 day): 15.4 g | ALP (72 h, time 3 day): 629 IU/L | AST (72 h, time 3 day): 46 IU/L | BUN (72 h, time 3 day): 17.6 mg/dL | CRE (72 h, time 3 day): 0.4 mg/dL | Ca (72 h, time 3 day): 10 mg/dL | Cl (72 h, time 3 day): 101.8 meq/L | DBIL (72 h, time 3 day): 0.094 mg/dL | GLC (72 h, time 3 day): 195 mg/dL | IP (72 h, time 3 day): 7.5 mg/dL | K (72 h, time 3 day): 3.8 meq/L | LDH (72 h, time 3 day): 200 IU/L | Na (72 h, time 3 day): 140.2 meq/L | PL (72 h, time 3 day): 207.4 mg/dL | RALB (72 h, time 3 day): 3.3 g/dL | TBIL (72 h, time 3 day): 0.2 mg/dL | TC (72 h, time 3 day): 120.8 mg/dL | TG (72 h, time 3 day): 157.2 mg/dL | TP (72 h, time 3 day): 5.6 g/dL | gamma-GTP (72 h, time 3 day): 2 IU/L | TERMINAL_BW ([…], time 7 day): 262 g | TERMINAL_BW ([…], time 14 day): 300.1 g | TERMINAL_BW ([…], time 28 day): 351.8 g | APTT ([…], time 7 day): 21.9 s | Bas ([…], time 7 day): 0% | Eos ([…], time 7 day): 0.6% | Fbg ([…], time 7 day): 215.2 mg/dL | Hb ([…], time 7 day): 12 g/dL | Ht ([…], time 7 day): 34.9% | Lym ([…], time 7 day): 80.4% | MCH ([…], time 7 day): 20.3 pg | MCHC ([…], time 7 day): 34.4% | MCV ([…], time 7 day): 59 fL | Mono ([…], time 7 day): 3.8% | Neu ([…], time 7 day): 14.6% | PT ([…], time 7 day): 11.9 s | Plat ([…], time 7 day): 171.4 x10_4/uL | RBC ([…], time 7 day): 591.8 x10_4/ul | Ret ([…], time 7 day): 4.3% | WBC ([…], time 7 day): 118.3 x10_2/uL | APTT ([…], time 14 day): 24.5 s | Bas ([…], time 14 day): 0% | Eos ([…], time 14 day): 0.6% | Fbg ([…], time 14 day): 203.8 mg/dL | Hb ([…], time 14 day): 11.7 g/dL | Ht ([…], time 14 day): 34.1% | Lym ([…], time 14 day): 82.2% | MCH ([…], time 14 day): 18.6 pg | MCHC ([…], time 14 day): 34.2% | MCV ([…], time 14 day): 54.3 fL | Mono ([…], time 14 day): 2.6% | Neu ([…], time 14 day): 13% | PT ([…], time 14 day): 12.7 s | Plat ([…], time 14 day): 139.7 x10_4/uL | RBC ([…], time 14 day): 628.4 x10_4/ul | Ret ([…], time 14 day): 5% | WBC ([…], time 14 day): 131 x10_2/uL | APTT ([…], time 28 day): 23.8 s | Bas ([…], time 28 day): 0% | Eos ([…], time 28 day): 0.6% | Fbg ([…], time 28 day): 196.8 mg/dL | Hb ([…], time 28 day): 12 g/dL | Ht ([…], time 28 day): 35.7% | Lym ([…], time 28 day): 78.6% | MCH ([…], time 28 day): 17.3 pg | MCHC ([…], time 28 day): 33.7% | MCV ([…], time 28 day): 51.3 fL | Mono ([…], time 28 day): 2.2% | Neu ([…], time 28 day): 17.6% | PT ([…], time 28 day): 12.3 s | Plat ([…], time 28 day): 124 x10_4/uL | RBC ([…], time 28 day): 697.2 x10_4/ul | Ret ([…], time 28 day): 4% | WBC ([…], time 28 day): 152.6 x10_2/uL | KIDNEY_L ([…], time 7 day): 1.1 g | KIDNEY_R ([…], time 7 day): 1.1 g | KIDNEY_TOTAL ([…], time 7 day): 2.1 g | KIDNEY_L ([…], time 14 day): 1.2 g | KIDNEY_R ([…], time 14 day): 1.2 g | KIDNEY_TOTAL ([…], time 14 day): 2.3 g | KIDNEY_L ([…], time 28 day): 1.2 g | KIDNEY_R ([…], time 28 day): 1.2 g | KIDNEY_TOTAL ([…], time 28 day): 2.5 g | LIVER ([…], time 7 day): 18.1 g | LIVER ([…], time 14 day): 21.2 g | LIVER ([…], time 28 day): 21.4 g | ALP ([…], time 7 day): 661.8 IU/L | AST ([…], time 7 day): 59.2 IU/L | BUN ([…], time 7 day): 16.6 mg/dL | CRE ([…], time 7 day): 0.4 mg/dL | Ca ([…], time 7 day): 10.7 mg/dL | Cl ([…], time 7 day): 101.4 meq/L | DBIL ([…], time 7 day): 0.064 mg/dL | GLC ([…], time 7 day): 187.4 mg/dL | IP ([…], time 7 day): 8.2 mg/dL | K ([…], time 7 day): 3.9 meq/L | LDH ([…], time 7 day): 242.4 IU/L | Na ([…], time 7 day): 140.6 meq/L | PL ([…], time 7 day): 200.8 mg/dL | RALB ([…], time 7 day): 3.5 g/dL | TBIL ([…], time 7 day): 0.1 mg/dL | TC ([…], time 7 day): 117.6 mg/dL | TG ([…], time 7 day): 62.4 mg/dL | TP ([…], time 7 day): 6.2 g/dL | gamma-GTP ([…], time 7 day): 2.6 IU/L | ALP ([…], time 14 day): 599 IU/L | AST ([…], time 14 day): 52.6 IU/L | BUN ([…], time 14 day): 18.2 mg/dL | CRE ([…], time 14 day): 0.5 mg/dL | Ca ([…], time 14 day): 10.8 mg/dL | Cl ([…], time 14 day): 102.8 meq/L | DBIL ([…], time 14 day): 0.072 mg/dL | GLC ([…], time 14 day): 191.4 mg/dL | IP ([…], time 14 day): 7.8 mg/dL | K ([…], time 14 day): 3.9 meq/L | LDH ([…], time 14 day): 195.8 IU/L | Na ([…], time 14 day): 141.2 meq/L | PL ([…], time 14 day): 206.6 mg/dL | RALB ([…], time 14 day): 3.6 g/dL | TBIL ([…], time 14 day): 0.1 mg/dL | TC ([…], time 14 day): 120.8 mg/dL | TG ([…], time 14 day): 77.8 mg/dL | TP ([…], time 14 day): 6.3 g/dL | gamma-GTP ([…], time 14 day): 2.2 IU/L | ALP ([…], time 28 day): 458.4 IU/L | AST ([…], time 28 day): 50.6 IU/L | BUN ([…], time 28 day): 18.2 mg/dL | CRE ([…], time 28 day): 0.5 mg/dL | Ca ([…], time 28 day): 10.7 mg/dL | Cl ([…], time 28 day): 102.2 meq/L | DBIL ([…], time 28 day): 0.07 mg/dL | GLC ([…], time 28 day): 190.8 mg/dL | IP ([…], time 28 day): 6.9 mg/dL | K ([…], time 28 day): 3.9 meq/L | LDH ([…], time 28 day): 119.2 IU/L | Na ([…], time 28 day): 142.6 meq/L | PL ([…], time 28 day): 185.8 mg/dL | RALB ([…], time 28 day): 3.8 g/dL | TBIL ([…], time 28 day): 0.1 mg/dL | TC ([…], time 28 day): 102.4 mg/dL | TG ([…], time 28 day): 49 mg/dL | TP ([…], time 28 day): 6.6 g/dL | gamma-GTP ([…], time 28 day): 2.4 IU/L
